# Read-outs that look alike come from different tables or passages of the source.
# Assays:
# [1] = molecular target: T1, KOP receptors (Homo sapiens, UniProt P41145); settings: compared to 1 ref 48; cited from earlier work
# [2] = molecular target: T1, KOP receptors; settings: compared to 2 (U50,488) ref 32; cited from earlier work
# [3] = molecular target: T1, KOP receptors; test: biochemical; type: biochemical
# [4] = molecular target: human DOP receptor (Homo sapiens, UniProt P41143); test: biochemical; type: binding
# [5] = molecular target: T1, KOP receptors; test: biochemical; type: binding
# [6] = molecular target: human MOP receptor (Homo sapiens, UniProt P35372); test: biochemical; type: binding
# [7] = molecular target: T1, KOP receptors; settings: read-out: KOP Ki, previous report; cited from earlier work
# [8] = molecular target: T1, KOP receptors; type: cell-based
# T1 sequence (P41145 whole entry): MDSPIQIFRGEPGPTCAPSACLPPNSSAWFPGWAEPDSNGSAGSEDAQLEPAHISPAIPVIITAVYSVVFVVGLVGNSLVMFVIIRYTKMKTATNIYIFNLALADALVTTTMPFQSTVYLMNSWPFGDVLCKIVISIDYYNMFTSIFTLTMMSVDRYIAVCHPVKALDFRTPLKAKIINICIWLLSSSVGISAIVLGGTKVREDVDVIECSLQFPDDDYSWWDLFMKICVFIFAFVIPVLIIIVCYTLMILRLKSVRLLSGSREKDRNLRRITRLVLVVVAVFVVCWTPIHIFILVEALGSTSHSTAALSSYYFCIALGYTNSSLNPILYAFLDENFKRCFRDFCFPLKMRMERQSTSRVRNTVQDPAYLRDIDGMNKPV
# Chain of human DOP receptor (P41143 whole entry): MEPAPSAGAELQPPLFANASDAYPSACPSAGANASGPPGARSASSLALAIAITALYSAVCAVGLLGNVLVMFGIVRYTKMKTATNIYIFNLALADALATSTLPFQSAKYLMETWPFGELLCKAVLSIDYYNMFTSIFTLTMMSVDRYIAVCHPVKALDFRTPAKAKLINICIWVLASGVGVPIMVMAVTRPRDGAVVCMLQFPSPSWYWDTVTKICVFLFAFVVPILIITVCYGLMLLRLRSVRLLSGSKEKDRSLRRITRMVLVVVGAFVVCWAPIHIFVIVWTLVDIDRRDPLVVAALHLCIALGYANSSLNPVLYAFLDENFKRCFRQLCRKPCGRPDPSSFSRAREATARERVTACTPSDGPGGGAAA
# Chain of human MOP receptor (P35372 whole entry): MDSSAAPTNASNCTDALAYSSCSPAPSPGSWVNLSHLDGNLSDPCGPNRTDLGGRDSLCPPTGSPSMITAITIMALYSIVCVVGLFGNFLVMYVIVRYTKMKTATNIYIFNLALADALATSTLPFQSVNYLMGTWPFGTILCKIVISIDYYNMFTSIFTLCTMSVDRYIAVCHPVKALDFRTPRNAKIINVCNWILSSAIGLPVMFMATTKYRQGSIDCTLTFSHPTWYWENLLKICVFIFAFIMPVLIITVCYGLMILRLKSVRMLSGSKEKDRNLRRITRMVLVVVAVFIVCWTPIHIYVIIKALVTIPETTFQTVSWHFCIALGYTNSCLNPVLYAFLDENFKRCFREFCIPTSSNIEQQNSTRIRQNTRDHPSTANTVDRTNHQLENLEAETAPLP
smiles,measurement,setting,value
"COC(=O)[C@@H]1C[C@H](OC(C)=O)C(=O)[C@H]2[C@@]1(C)CC[C@H]1C(=O)O[C@@H](c3ccoc3)C[C@]21C [Compound 3, (2R,4aR,6aR,7R,9S,10aS,10bR)-methyl 9-acetoxy-2-(furan-3-yl)-6a,10b-dimethyl-4,10-dioxododecahydro-1H-benzo[f]isochromene-7-carboxylate]","Emax, β-arrestin 2 DiscoveRx assay",[1],126 ± 10
same,"Emax, [35S]GTP-γ-S assay, previous report",[2],73 ± 6
same,less potent than 1 in the [35S]GTP-γ-S assay,[3],18 fold
"COC(=O)[C@@H]1C[C@H](OC(C)=O)C(=O)[C@H]2[C@@]1(C)CC[C@H]1C(=O)OC(/C=C\c3ccoc3)C[C@]21C (stereo partly drawn) [Compound 9, (4aR,6aR,7R,9S,10aS,10bR)-methyl 9-acetoxy-2-((Z)-2-(furan-3-yl)vinyl)-6a,10b-dimethyl-4,10-dioxododecahydro-1H-benzo[f]isochromene-7-carboxylate]",Ki,[4],> 10 µM
same,remaining activity at 10 µM,[4]; read-out: DOP percent of control produced by the 10 μM test drug,94%
same,Ki,[5],30 ± 4 nM
same,higher affinity for the KOP receptor compared to trans analogue 8,[5],~40 fold
same,Ki,[6],2600 nM
same,EC50,[3],1370 nM
same,Emax,"[3]; read-out: KOP Emax ± SD, stimulation of [35S]GTP-γ-S binding",105 ± 4%
"COC(=O)[C@@H]1C[C@H](OC(C)=O)C(=O)[C@H]2[C@@]1(C)CC[C@H]1C(=O)O[C@H](C(=O)c3ccccc3)C[C@]21C [Compound 12, (2S,4aR,6aR,7R,9S,10aS,10bR)-methyl 9-acetoxy-2-benzoyl-6a,10b-dimethyl-4,10-dioxododecahydro-1H-benzo[f]isochromene-7-carboxylate]",EC50,[3],1370 ± 180 nM
"COC(=O)[C@@H]1C[C@H](OC(C)=O)C(=O)[C@H]2[C@@]1(C)CC[C@H]1C(=O)O[C@H](C(=O)c3cccc(C(N)=O)c3)C[C@]21C [Compound 19, (2S,4aR,6aR,7R,9S,10aS,10bR)-methyl 9-acetoxy-2-(3-carbamoylbenzoyl)-6a,10b-dimethyl-4,10-dioxododecahydro-1H-benzo[f]isochromene-7-carboxylate]",increased KOP affinity compared to 17,[5],approximately 3 fold
same,less potent than 1 in the [35S]GTP-γ-S assay,[3],18 fold
"COC(=O)[C@@H]1C[C@H](OC(C)=O)C(=O)[C@H]2[C@@]1(C)CC[C@H]1C(=O)O[C@H](C(=O)c3cccc(C#N)c3)C[C@]21C [Compound 20, (2S,4aR,6aR,7R,9S,10aS,10bR)-methyl 9-acetoxy-2-(3-cyanobenzoyl)-6a,10b-dimethyl-4,10-dioxododecahydro-1H-benzo[f]isochromene-7-carboxylate]",decreased KOP affinity compared to 19,[5],6 fold
"COC(=O)[C@@H]1C[C@H](OC(C)=O)C(=O)[C@H]2[C@@]1(C)CC[C@H]1C(=O)O[C@H](C(=O)c3ccco3)C[C@]21C [Compound 23, (2S,4aR,6aR,7R,9S,10aS,10bR)-methyl 9-acetoxy-2-(furan-2-carbonyl)-6a,10b-dimethyl-4,10-dioxododecahydro-1H-benzo[f]isochromene-7-carboxylate]",Ki,[7],> 1000 nM
"COC(=O)[C@@H]1C[C@H](OC(C)=O)C(=O)[C@H]2[C@@]1(C)CC[C@H]1C(=O)O[C@H](C(=O)c3ccsc3)C[C@]21C [Compound 26, (2S,4aR,6aR,7R,9S,10aS,10bR)-methyl 9-acetoxy-6a,10b-dimethyl-4,10-dioxo-2-(thiophene-3-carbonyl)dodecahydro-1H-benzo[f]isochromene-7-carboxylate]",more potent than 25 as an agonist in the [35S]GTP-γ-S assay,[3],approximately 3 fold
"C/C=C\C(=O)[C@@H]1C[C@]2(C)[C@H]3C(=O)[C@@H](OC(C)=O)C[C@@H](C(=O)OC)[C@]3(C)CC[C@H]2C(=O)O1 [Compound 30, (2S,4aR,6aR,7R,9S,10aS,10bR)-methyl 9-acetoxy-2-((Z)-but-2-enoyl)-6a,10b-dimethyl-4,10-dioxododecahydro-1H-benzo[f]isochromene-7-carboxylate]",decrease in KOP affinity compared to 12,[5],4 fold
"COC(=O)[C@@H]1C[C@H](OC(C)=O)C(=O)[C@H]2[C@@]1(C)CC[C@H]1C(=O)O[C@H](c3ccco3)C[C@]21C [Compound 31, (2S,4aR,6aR,7R,9S,10aS,10bR)-methyl 9-acetoxy-2-(furan-2-yl)-6a,10b-dimethyl-4,10-di-oxododecahydro-1H-benzo[f]isochromene-7-carboxylate]","decrease in potency compared to 1, Ca2+ mobilization",[8],2 fold
same,Ki,[5],8.7 ± 0.4 nM
same,increase in affinity at KOP receptors compared to 23,[5],9 fold
same,less potent than 1 in the [35S]GTP-γ-S assay,[3],3 fold
